# Assay results as given in PubChem BioAssay AID2060484 (Molecular Pharmacology Branch, DTP, NCI, 2025).
# Tested on: SUM149PT spheroids with HUVEC/MSC, viability
# Test: Anticancer human tumor SUM149PT cell line growth inhibition [GQUAD];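 note: spheroids exposed to drugs for seven days before readout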;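 for viability, T/C: percent viability relative to DMSO vehicle control taken as 100%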
# Conditions: for IC50: curve of first compound; for viability, T/C: stronger effect = lower value
# Excerpt: DNA G-quadruplex Stabilizer Agents in Combinations in Complex Spheroids
# A high-throughput screen of multi-cell type tumor spheroids was designed to identify active combinations of DNA G-quadruplex stabilizer agents and targeted small molecules. Complex spheroids include a stromal component modeled by human endothelial cells (HUVEC) and fibroblasts modeled by human mesenchymal stem cells (MSCs). The concentration ranges selected for each drug and investigational agent were based upon clinically achievable concentrations if the clinical Cmax of the agent was known.
# Compounds. The drugs and investigational agents: pidnarulex (CX-5461; NSC782164), APTO-253 (NSC789042), BRACO-19 (NSC847499), peposertib (NSC802822), ceralasertib (NSC780249), elimusertib (NSC800525), camonsertib (NSC841442), AZD-1390 (NSC803789), olaparib (NSC753686), talazoparib (NSC767125), ART-558 (NSC835418), sotorasib (NSC818433), MRTX-1133 (NSC836407), SN-38 (NSC673596), topotecan (NSC609699), etoposide (NSC141540), doxorubicin (NSC123127), gemcitabine (NSC613327), 5-fluorouracil (NSC19893), paclitaxel (NSC125973), vemurafenib (NSC761431), panobinostat (NSC761190), R-306465 (JNJ-16241199; NSC773264), adavosertib (NSC754352), TP-3654 (NSC805149), carboplatin (NSC241240), KSQ-4279 (NSC840948), and staurosporine (NSC755774) were obtained from the National Cancer Institute (NCI) Developmental Therapeutics Program Chemical Repository (34). The FDA-approved anticancer drug set is available from the NCI Developmental Therapeutics Program. […] The stock solutions were prepared in dimethyl sulfoxide (DMSO, Sigma-Aldrich, St. Louis, MO, cat. D2650) at 800-fold the tested concentration and stored at -70 degrees C prior to their use. All drugs and investigational agents were tested over a range starting from a high concentration at or near the clinical Cmax and decreasing in half-log increments. If the clinical Cmax for an agent had not been determined, the highest concentration tested was 10 microM.
# 2.3 Cell Culture. All cells were maintained in an incubator at 37 degrees C and 5% CO2 with 95% humidity. The PDC lines were cultured according to standard operating procedures established by the NCI PDMR. All PDCs were thawed and cultured in Matrigel-coated flasks prepared with a working solution of 1X Ham's F-12 nutrient mix, without supplementation (Invitrogen, cat. 11765054), 100 U/mL penicillin-streptomycin (Invitrogen, cat. 15140122), and 2.5% Matrigel (Corning Inc., cat. 354248) for the first three passages. The 857933-349-R-J2-PDC line was cultured in 6C/Colon 1B media, which includes advanced DMEM/F-12 (Thermo Fisher Scientific, cat. 12634028), 10 mM HEPES (Thermo Fisher Scientific, cat. 15630080), 1X GlutaMAX supplement (Thermo Fisher Scientific, cat. 35050061), 0.1 mg/mL primocin (InvivoGen, cat. ant-pm-2), 10% defined fetal bovine serum, heat inactivated (HyClone Laboratories Inc., cat. SH30070.03HI), 50% L-WRN conditioned media (ATCC, cat. CRL-3276), 1.25 mM N-Acetyl-L-cysteine (Sigma-Aldrich, cat. A9165), 10 mM nicotinamide (Sigma-Aldrich, cat. N0636), 1X B-27 supplement (Thermo Fisher Scientific, cat. 17504044), 1X N-2 supplement (Thermo Fisher Scientific, cat. 17502048), 10 microM Y-27632 dihydrochloride (Tocris Bioscience, cat. 1254), and 50 ng/mL human EGF recombinant protein (Thermo Fisher Scientific, cat. PHG0311). The 485176-168-R4-J1-PDC line was cultured in Panc media, which includes all 6C/Colon 1B media components plus 100 ng/mL human FGF-10 (Thermo Fisher Scientific, cat. 100-26), 500 nM SB-431542 (Selleckchem, cat. S1067), and gastrin (Tocris, cat. 3006).
# […]
smiles,measurement,setting,value
CC1COCCN1c1cc(-c2ccnn2C)c2ccnc(-c3ccn[nH]3)c2n1 (configuration not stated) + CN(C)c1ccc(Nc2c3ccc(NC(=O)CCN4CCCC4)cc3nc3cc(NC(=O)CCN4CCCC4)ccc23)cc1,IC50,second compound 0.0316 µM,93.3 nM
same,IC50,second compound 0.1 µM,92.7 nM
same,IC50,second compound 0.316 µM,91.3 nM
same,IC50,second compound 1 µM,89.7 nM
same,IC50,second compound 3.16 µM,88.4 nM
same,IC50,second compound 10 µM,65.7 nM
same,"viability, T/C","second compound 0.0316 µM, first compound 0.0316 µM",96.3%
same,"viability, T/C","second compound 0.0316 µM, first compound 0.1 µM",46.9%
same,"viability, T/C","second compound 0.0316 µM, first compound 0.316 µM",29.1%
same,"viability, T/C","second compound 0.0316 µM, first compound 1 µM",23.2%
same,"viability, T/C","second compound 0.0316 µM, first compound 3.16 µM",38.2%
same,"viability, T/C","second compound 0.0316 µM, first compound 10 µM",28%
same,"viability, T/C","second compound 0.1 µM, first compound 0.0316 µM",87.8%
same,"viability, T/C","second compound 0.1 µM, first compound 0.1 µM",47.3%
same,"viability, T/C","second compound 0.1 µM, first compound 0.316 µM",29.6%
same,"viability, T/C","second compound 0.1 µM, first compound 1 µM",29.4%
same,"viability, T/C","second compound 0.1 µM, first compound 3.16 µM",30%
same,"viability, T/C","second compound 0.1 µM, first compound 10 µM",36.1%
same,"viability, T/C","second compound 0.316 µM, first compound 0.0316 µM",87.5%
same,"viability, T/C","second compound 0.316 µM, first compound 0.1 µM",46.8%
same,"viability, T/C","second compound 0.316 µM, first compound 0.316 µM",26%
same,"viability, T/C","second compound 0.316 µM, first compound 1 µM",26.5%
same,"viability, T/C","second compound 0.316 µM, first compound 3.16 µM",28.1%
same,"viability, T/C","second compound 0.316 µM, first compound 10 µM",29.2%
same,"viability, T/C","second compound 1 µM, first compound 0.0316 µM",82.6%
same,"viability, T/C","second compound 1 µM, first compound 0.1 µM",46.6%
same,"viability, T/C","second compound 1 µM, first compound 0.316 µM",26.4%
same,"viability, T/C","second compound 1 µM, first compound 1 µM",23.7%
same,"viability, T/C","second compound 1 µM, first compound 3.16 µM",26.8%
same,"viability, T/C","second compound 1 µM, first compound 10 µM",29.4%
same,"viability, T/C","second compound 3.16 µM, first compound 0.0316 µM",79%
same,"viability, T/C","second compound 3.16 µM, first compound 0.1 µM",46.5%
same,"viability, T/C","second compound 3.16 µM, first compound 0.316 µM",20.7%
same,"viability, T/C","second compound 3.16 µM, first compound 1 µM",23.5%
same,"viability, T/C","second compound 3.16 µM, first compound 3.16 µM",25.6%
same,"viability, T/C","second compound 3.16 µM, first compound 10 µM",24.2%
same,"viability, T/C","second compound 10 µM, first compound 0.0316 µM",69.9%
same,"viability, T/C","second compound 10 µM, first compound 0.1 µM",38%
same,"viability, T/C","second compound 10 µM, first compound 0.316 µM",28.9%
same,"viability, T/C","second compound 10 µM, first compound 1 µM",24.9%
same,"viability, T/C","second compound 10 µM, first compound 3.16 µM",25.4%
same,"viability, T/C","second compound 10 µM, first compound 10 µM",21.9%
